Results from patent EP0636368B1, “The use of 2- phenylmethylene -1- 3'-(amino)-2'-(hydroxy)--propoxy-imino -cyclohexane derivatives” (EGIS GYOGYSZERGYAR RT., priority 1993, dated 1995).
≈ marks a conversion by molar mass, not a printed value.

Tests used:
[1] = Acute toxicity (LD50, Litchfield and Wilcoxon); conditions: mouse, in vivo, po; NMRI mice of both sexes, peroral, 7 days observation; "higher than" = highest dose administered without any death
Description: The acute toxicity was determined on NMRI strain mice of both sexes weighing 20 to 25 g each by using 6 animals for each dose. The compounds to be tested were administered perorally in a volume of 20 ml/kg, the highest dose applied was 1 000 mg/kg. After the administration the animals were kept under usual laboratory conditions for 7 days. The LD50 values were calculated according to the method of Litchfield and Wilcoxon (J. Pharmacol. Exp. Ther., 96 [1949], 99).
The data given as "higher than" a certain value mean the highest dose administered without noting any death of animals.

[2] = test system: lesions of gastric mucosa; assay: Test with absolute ethanol (gastric mucosa lesions, erosion index); type: in vivo, Rats; conditions: for Relative activity related to the inhibition of the free acid: gastroprotective action (absolute ethanol test) compared to the gastric acid inhibiting activity (Shay test, rats, p.o.); for activity in the test with absolute ethanol: result in words
Description: Rats of both sexes weighing 200 to 250 g, each previously starved for 24 hours, were used in this experiment. […] After one hour following the administration, the animals were killed by an overdose of ether, the stomach was excised and the alterations of gastric mucosa were examined. The lengths of the erosions were measured and summarized (expressed in mm) for each stomach to obtain the erosion index by calculating the average value of the group. The inhibition was calculated in percentage by comparing the value of the group treated with ethanol to that of the control group treated only with the vehicle. Various doses of the compounds to be tested were administered, perorally, in a volume of 5 ml/kg using a pretreatment time of 60 minutes. Eight rats were used for each dose. (A. Robert, Gastroenterology 77 [1979], 761 to 767). In the test with absolute ethanol which is useful for showing the gastroprotective activity, as to the effective dose range, a sharp difference can be made between the cytoprotective effect and the gastric acid inhibition, the latter resulting in the inhibition of the gastric erosion.

[3] = test system: lesions of gastric mucosa; assay: Test with ethanol containing hydrochloric acid (erosion frequency and erosion index); type: in vivo, Rats; conditions: for Inhibition of the erosion frequency Relative activity / Inhibition of the erosion index Relative activity: ED50 of cetraxate divided by ED50 of the compound tested; for ED50: Rattus norvegicus, po, read-out: Inhibition of the erosion frequency ED50 p.o.; for ED50 / Inhibition of the erosion index ED50 p.o.: rats, peroral, conc. hydrochloric acid/absolute ethanol 1 to 50
Excerpt: The principle of the method consists in that, simultaneously with the administration of absolute ethanol, hydrochloric acid is introduced to the stomach. Thus, the influence on systemic gastric acid inhibition action can be eliminated by the presence of the exogenous acid.
The reagent used in this test was a mixture of concentrated aqueous hydrochloric acid and absolute ethanol in a weight ratio of 1 to 50 in accordance with the dilution ratio used by Yamazaki et al. (Japan J. Pharmacol., 55 [1991], 415 to 424). In other respects, the experiment was performed as described under test 2.1., however, in addition to the erosion index calculated from the lenghts of the erosions in mm, the ratio of occurence of animals showing at least one gastric erosion within a test group, i.e. the erosion frequency, was also evaluated.

Helicobacter pylori = assay: Antibacterial effect on Helicobacter pylori (MIC on blood agar); type: cell-based; conditions: for MIC: Helicobacter pylori, 72 h, 37°C
Description: Helicobacter pylori strains used in these experiments were obtained from the biopsial samples of the stomachs of patients suffering from ulcerative diseases of the gastrointestinal system. From the pure culture of isolates a thick suspension was prepared with cysteine-inositol solution suitable for lyophilisation, and the suspension obtained was maintained in cold-resistant plastic ampoules in a deep-freezing chamber at a temperature of about -196°C. For the determination of the inhibitory effect of the compounds tested on Helicobacter pylori, blood agar containing 10 mg/litre of a stereoisomer of 23-[aminocarbonyl]-12-[{2-0-(3-amino-2,3,6-trideoxy-3-C-methyl-α-L-lyxo-hexopyranosyl)-β-D-glucopyranosyl}-oxy]-8,16-di-[chloro]-2,3,4,5,19,20,21,22,23,24,25,26,27,28,29,30-hexa-[decahydro]-5,19,34,36,38-penta-[hydroxy]-28-[{4-(methyl)-2-(methylamino)-1-(oxo)-pentyl}-amino]-3,21,25,28,41-penta-[oxo]-1H-6,9:15,18-[dietheno]-4,30-[iminomethano]-31,35-[metheno]-11,27,13-[[1]-propene[1,2]diyl[3]ylidene]-13H-10,14,2,22,26,29-benzodioxatetraazacycloheptatriacontine-1-carboxylic acid 〈vancomycin〉 and 25 mg/litre of [1R-(1R^x,3S^x,5R^x,6R^x,9R^x,11R^x,15S^x,16R^x,17R^x,18S^x,19E,21E,23E,25E,27E,29E,31E,33R^x,35S^x,36R^x,37S^x)]-33-[{3-(amino)-3,6-di-(deoxy)-β-D-mannopyranosyl}-oxy]-1,3,5,6,9,11,17,37-octa-[hydroxy]-15,16,18-tri-[methyl]-13-[oxo]-14,39-di-[oxa]-bicyclo-[33.3.1]-nonatriaconta-19,21,23,25,27,29,31-heptaene-36-carboxylic acid 〈amphotericin B〉 was used (C. A. M. McNulty and I. C. Dent: Susceptibility of clinical isolates of Campylobacter pylori to twenty one antimicrobial agents. Book of Abstracts, 4th European Congress of Clinical Microbiology, Nice [1989]).
The plates containing the strains were cultivated at 37°C for 72 hours under a gaseous atmosphere containing 10% of carbon dioxide and 5% of oxygen (D. M. Jones et al., J. Clin. Pathol., 37 [1984], 1 002).
The culture media were inoculated with a dilution of the broth culture of the strains grown overnight or with a suspension prepared from a culture obtained on a solid medium. About 10^5 of germs were applied to the surface of each plate.
A series of dilution were prepared from the compound to be tested. The MIC (minimal inhibiting concentration) value of the compounds tested was considered to be the lowest concentration inhibiting the growth of the test organism completely. The results obtained for (R,S)-2-(E)-[4'-(chloro)-phenylmethylene]-1-(E)-[3''-(hexylamino)-2''-(hydroxy)-propoxy-imino]-cyclohexane and colloidal bismuth subcitrate used as reference are given in Table IVa.

gastric acid secretion = assay: Effect on the gastric acid secretion (Shay's method, pylorus ligation); type: in vivo, Wistar rats; conditions: test according to Shay, result in words
Description: The influence of the compounds on the gastric acid secretion was examined on starved Wistar rats of both sexes weighing 180 to 240 g each by using Shay's method (H. Shay et al., Gastroenterology, 5 [1945], 45). The compounds to be tested were given, perorally, 3 hours before the ligation of the pylorus. Four hours after the operation, the animals were killed by an overdose of ether, the stomach was excised, the stomach content was centrifuged and the free hydrochloric acid content of the gastric juice was determined by titration in the presence of Töpfer's reagent. The percentage of inhibition and then the ED50 values were determined by calculating average values for the groups and comparing those to the average values for the control group.

Row | Compound | LD50 at 168 h [1] | Relative activity related to the inhibition of the free acid [2] | Inhibition of the erosion frequency Relative activity [3] | Inhibition of the erosion index Relative activity [3] | ED50 [3] | Inhibition of the erosion index ED50 p.o. [3] | further results
1 | COc1ccc2[nH]c([S+]([O-])Cc3ncc(C)c(OC)c3C)nc2c1 (stereo not shown) [omeprazole, 5-[Methoxy]-2-[{4-(methoxy)-3,5-di-(methyl)-2-pyridyl}-methylsulfinyl]-benzimidazole, reference compound] | – | – | – | – | – | – | LD50 at 7 days [1]: > 4000 mg/kg
2 | CCCCCCNCC(O)CO/N=C1\CCCC\C1=C/c1ccc(Cl)cc1 (racemic) [(R,S)-2-(E)-[4'-(Chloro)-phenylmethylene]-1-(E)-[3''-(hexylamino)-2''-(hydroxy)-propoxy-imino]-cyclohexane] | > 1000 mg/kg | 25.0 | 7.5 | 3.1 | 25.2 mg/kg | 7.2 mg/kg | MIC (Helicobacter pylori; Helicobacter pylori strain 867/90): 1.9 µg/mL (≈ 4.83 µM); MIC (Helicobacter pylori; Helicobacter pylori strain 1596): 0.9 µg/mL (≈ 2.29 µM); MIC (Helicobacter pylori; Helicobacter pylori strain 3842): 1.9 µg/mL (≈ 4.83 µM); MIC (Helicobacter pylori; Helicobacter pylori strain 6656): 1.9 µg/mL (≈ 4.83 µM); MIC (Helicobacter pylori; Helicobacter pylori strain 6709): 1.9 µg/mL (≈ 4.83 µM); effectiveness against Helicobacter pylori (Helicobacter pylori; compared with colloidal bismuth subcitrate, result in words): substantially more effective in the test than the colloidal bismuth subcitrate
3 | OC(CNC1CCCCC1)CO/N=C1\CCCC\C1=C/c1ccc(Cl)cc1 (racemic) [(R,S)-2-(E)-[4'-(Chloro)-phenylmethylene]-1-(E)-[3''-(cyclohexylamino)-2''-(hydroxy)-propoxy-imino]-cyclohexane] | > 1000 mg/kg | 30.0 | – | 2.1 | 30 to 60 mg/kg | 10.3 mg/kg | –
4 | CN(C)CC(O)CO/N=C1\CCCC\C1=C/c1ccc(Cl)cc1 (racemic) [(R,S)-2-(E)-[4'-(Chloro)-phenylmethylene]-1-(E)-[3''-(dimethylamino)-2''-(hydroxy)-propoxy-imino]-cyclohexane] | > 1000 mg/kg | – | – | 1.4 | 30 to 60 mg/kg | 15.8 mg/kg | –
5 | CCCCCCNCC(O)CO/N=C1\CCCC\C1=C/c1ccccc1 (racemic) [(R,S)-2-(E)-[Phenylmethylene]-1-(E)-[3'-(hexylamino)-2'-(hydroxy)-propoxy-imino]-cyclohexane] | > 1000 mg/kg | about 250.0 | 7.4 | 1.9 | 25.7 mg/kg | 11.5 mg/kg | –
6 | the basic aluminum salt of saccharose hydrogen sulfate [sucralfate, reference compound] | – | – | – | – | – | – | activity in the test with absolute ethanol [2]: nearly identical low activity
7 | CN(CC(O)CO/N=C1\CCCC\C1=C/c1ccc(Cl)cc1)C1CCCCC1 (racemic) [(R,S)-2-(E)-[4'-(Chloro)-phenylmethylene]-1-(E)-[3''-{N-(methyl)-N-(cyclohexyl)-amino}-2''-(hydroxy)-propoxy-imino]-cyclohexane] | > 1000 mg/kg | – | – | – | – | – | –
8 | CC(C)N(CC(O)CO/N=C1\CCCC\C1=C/c1ccc(Br)cc1)C(C)C (racemic) [(R,S)-2-(E)-[4'-(Bromo)-phenylmethylene]-1-(E)-[3''-(diisopropylamino)-2''-(hydroxy)-propoxy-imino]-cyclohexane] | 1000 mg/kg | about 25.0 | 9.9 | 3.7 | 19.1 mg/kg | 5.9 mg/kg | –
9 | NC[C@H]1CC[C@H](C(=O)Oc2ccc(CCC(=O)O)cc2)CC1 [cetraxate, 3-[4-{Trans-4-(aminomethyl)-cyclohexylcarbonyloxy}-phenyl]-propionic acid, reference compound] | – | – | 1.0 | 1.0 | 189 mg/kg | 22.0 mg/kg | LD50 at 7 days [1]: > 1000 mg/kg; activity in the test with absolute ethanol [2]: nearly identical low activity; gastric acid secretion inhibition (gastric acid secretion): only a moderate gastric acid secretion inhibition
